Numbers after ± are expanded uncertainties.
Assay: isobaric coefficient of expansion; xn = mol fraction of the nth substance listed
Details: calorimetric method

CCCCCCO [hexan-1-ol] + CCCCCC
isobaric coefficient of expansion
Details | 5000 kPa | 10000 kPa | 15000 kPa | 20000 kPa | 25000 kPa | 30000 kPa | 35000 kPa | 40000 kPa | 45000 kPa | 50000 kPa
278.15 K, x1 = 0.0321 | 0.00122 ± 5.2e-05 1/K | 0.00117 ± 5e-05 1/K | 0.00114 ± 4.8e-05 1/K | 0.0011 ± 4.7e-05 1/K | 0.00107 ± 4.5e-05 1/K | 0.00104 ± 4.4e-05 1/K | 0.00101 ± 4.3e-05 1/K | 0.000982 ± 4.2e-05 1/K | 0.000957 ± 4.1e-05 1/K | 0.000935 ± 4e-05 1/K
278.15 K, x1 = 0.041 | 0.00122 ± 5.2e-05 1/K | 0.00118 ± 5e-05 1/K | 0.00114 ± 4.8e-05 1/K | 0.0011 ± 4.7e-05 1/K | 0.00107 ± 4.5e-05 1/K | 0.00104 ± 4.4e-05 1/K | 0.00101 ± 4.3e-05 1/K | 0.000977 ± 4.1e-05 1/K | 0.000958 ± 4.1e-05 1/K | 0.000937 ± 4e-05 1/K
278.15 K, x1 = 0.0946 | 0.00119 ± 5.1e-05 1/K | 0.00115 ± 4.9e-05 1/K | 0.00112 ± 4.7e-05 1/K | 0.00108 ± 4.6e-05 1/K | 0.00105 ± 4.5e-05 1/K | 0.00102 ± 4.3e-05 1/K | 0.000997 ± 4.2e-05 1/K | 0.000967 ± 4.1e-05 1/K | 0.000942 ± 4e-05 1/K | 0.000925 ± 3.9e-05 1/K
278.15 K, x1 = 0.1679 | 0.00116 ± 4.9e-05 1/K | 0.00112 ± 4.7e-05 1/K | 0.00108 ± 4.6e-05 1/K | 0.00105 ± 4.5e-05 1/K | 0.00102 ± 4.3e-05 1/K | 0.000996 ± 4.2e-05 1/K | 0.000974 ± 4.1e-05 1/K | 0.000947 ± 4e-05 1/K | 0.000923 ± 3.9e-05 1/K | 0.000907 ± 3.8e-05 1/K
278.15 K, x1 = 0.2153 | 0.00114 ± 4.8e-05 1/K | 0.0011 ± 4.7e-05 1/K | 0.00107 ± 4.5e-05 1/K | 0.00103 ± 4.4e-05 1/K | 0.00101 ± 4.3e-05 1/K | 0.000979 ± 4.2e-05 1/K | 0.000958 ± 4.1e-05 1/K | 0.000928 ± 3.9e-05 1/K | 0.000909 ± 3.9e-05 1/K | 0.000892 ± 3.8e-05 1/K
278.15 K, x1 = 0.3016 | 0.0011 ± 4.7e-05 1/K | 0.00106 ± 4.5e-05 1/K | 0.00103 ± 4.4e-05 1/K | 0.000999 ± 4.2e-05 1/K | 0.000978 ± 4.1e-05 1/K | 0.000953 ± 4e-05 1/K | 0.000932 ± 4e-05 1/K | 0.000911 ± 3.9e-05 1/K | 0.000887 ± 3.8e-05 1/K | 0.000868 ± 3.7e-05 1/K
278.15 K, x1 = 0.4075 | 0.00105 ± 4.5e-05 1/K | 0.00102 ± 4.3e-05 1/K | 0.000995 ± 4.2e-05 1/K | 0.000967 ± 4.1e-05 1/K | 0.000946 ± 4e-05 1/K | 0.000921 ± 3.9e-05 1/K | 0.000903 ± 3.8e-05 1/K | 0.000877 ± 3.7e-05 1/K | 0.000859 ± 3.6e-05 1/K | 0.000844 ± 3.6e-05 1/K
278.15 K, x1 = 0.503 | 0.00101 ± 4.3e-05 1/K | 0.000989 ± 4.2e-05 1/K | 0.000961 ± 4.1e-05 1/K | 0.00094 ± 4e-05 1/K | 0.000917 ± 3.9e-05 1/K | 0.000893 ± 3.8e-05 1/K | 0.000876 ± 3.7e-05 1/K | 0.000851 ± 3.6e-05 1/K | 0.000835 ± 3.5e-05 1/K | 0.00082 ± 3.5e-05 1/K
278.15 K, x1 = 0.594 | 0.000978 ± 4.1e-05 1/K | 0.000951 ± 4e-05 1/K | 0.000932 ± 4e-05 1/K | 0.000902 ± 3.8e-05 1/K | 0.000887 ± 3.8e-05 1/K | 0.000864 ± 3.7e-05 1/K | 0.00085 ± 3.6e-05 1/K | 0.000831 ± 3.5e-05 1/K | 0.000804 ± 3.4e-05 1/K | 0.0008 ± 3.4e-05 1/K
278.15 K, x1 = 0.6827 | 0.000937 ± 4e-05 1/K | 0.000916 ± 3.9e-05 1/K | 0.000897 ± 3.8e-05 1/K | 0.000874 ± 3.7e-05 1/K | 0.000857 ± 3.6e-05 1/K | 0.00084 ± 3.6e-05 1/K | 0.000824 ± 3.5e-05 1/K | 0.000804 ± 3.4e-05 1/K | 0.000791 ± 3.4e-05 1/K | 0.000775 ± 3.3e-05 1/K
278.15 K, x1 = 0.8013 | 0.000892 ± 3.8e-05 1/K | 0.000865 ± 3.7e-05 1/K | 0.000857 ± 3.6e-05 1/K | 0.000834 ± 3.5e-05 1/K | 0.000819 ± 3.5e-05 1/K | 0.000806 ± 3.4e-05 1/K | 0.000784 ± 3.3e-05 1/K | 0.000769 ± 3.3e-05 1/K | 0.000756 ± 3.2e-05 1/K | 0.000745 ± 3.2e-05 1/K
278.15 K, x1 = 0.8934 | 0.00085 ± 3.6e-05 1/K | 0.000837 ± 3.6e-05 1/K | 0.000817 ± 3.5e-05 1/K | 0.000803 ± 3.4e-05 1/K | 0.000789 ± 3.3e-05 1/K | 0.000775 ± 3.3e-05 1/K | 0.000756 ± 3.2e-05 1/K | 0.000751 ± 3.2e-05 1/K | 0.000733 ± 3.1e-05 1/K | 0.000723 ± 3.1e-05 1/K
278.15 K, x1 = 1 | 0.000821 ± 3.5e-05 1/K | 0.0008 ± 3.4e-05 1/K | 0.000788 ± 3.3e-05 1/K | 0.000778 ± 3.3e-05 1/K | 0.00076 ± 3.2e-05 1/K | 0.000748 ± 3.2e-05 1/K | 0.000733 ± 3.1e-05 1/K | 0.000723 ± 3.1e-05 1/K | 0.000716 ± 3e-05 1/K | 0.000708 ± 3e-05 1/K
298.15 K, x1 = 0.0321 | 0.0013 ± 5.5e-05 1/K | 0.00124 ± 5.3e-05 1/K | 0.0012 ± 5.1e-05 1/K | 0.00115 ± 4.9e-05 1/K | 0.00111 ± 4.7e-05 1/K | 0.00107 ± 4.5e-05 1/K | 0.00104 ± 4.4e-05 1/K | 0.00101 ± 4.3e-05 1/K | 0.00098 ± 4.2e-05 1/K | 0.000951 ± 4e-05 1/K
298.15 K, x1 = 0.041 | 0.0013 ± 5.5e-05 1/K | 0.00124 ± 5.3e-05 1/K | 0.0012 ± 5.1e-05 1/K | 0.00115 ± 4.9e-05 1/K | 0.00111 ± 4.7e-05 1/K | 0.00108 ± 4.6e-05 1/K | 0.00104 ± 4.4e-05 1/K | 0.00101 ± 4.3e-05 1/K | 0.000985 ± 4.2e-05 1/K | 0.000959 ± 4.1e-05 1/K
298.15 K, x1 = 0.0946 | 0.00127 ± 5.4e-05 1/K | 0.00122 ± 5.2e-05 1/K | 0.00118 ± 5e-05 1/K | 0.00113 ± 4.8e-05 1/K | 0.0011 ± 4.6e-05 1/K | 0.00106 ± 4.5e-05 1/K | 0.00103 ± 4.4e-05 1/K | 0.000999 ± 4.2e-05 1/K | 0.000969 ± 4.1e-05 1/K | 0.000946 ± 4e-05 1/K
298.15 K, x1 = 0.1679 | 0.00124 ± 5.2e-05 1/K | 0.00119 ± 5e-05 1/K | 0.00115 ± 4.9e-05 1/K | 0.0011 ± 4.7e-05 1/K | 0.00107 ± 4.5e-05 1/K | 0.00104 ± 4.4e-05 1/K | 0.00101 ± 4.3e-05 1/K | 0.000977 ± 4.1e-05 1/K | 0.00095 ± 4e-05 1/K | 0.000926 ± 3.9e-05 1/K
298.15 K, x1 = 0.2153 | 0.00121 ± 5.1e-05 1/K | 0.00116 ± 4.9e-05 1/K | 0.00112 ± 4.8e-05 1/K | 0.00108 ± 4.6e-05 1/K | 0.00105 ± 4.5e-05 1/K | 0.00102 ± 4.3e-05 1/K | 0.000988 ± 4.2e-05 1/K | 0.000962 ± 4.1e-05 1/K | 0.000936 ± 4e-05 1/K | 0.000913 ± 3.9e-05 1/K
298.15 K, x1 = 0.3016 | 0.00117 ± 4.9e-05 1/K | 0.00112 ± 4.8e-05 1/K | 0.00109 ± 4.6e-05 1/K | 0.00105 ± 4.4e-05 1/K | 0.00101 ± 4.3e-05 1/K | 0.000984 ± 4.2e-05 1/K | 0.000958 ± 4.1e-05 1/K | 0.000935 ± 4e-05 1/K | 0.000908 ± 3.9e-05 1/K | 0.000883 ± 3.7e-05 1/K
298.15 K, x1 = 0.4075 | 0.00112 ± 4.8e-05 1/K | 0.00108 ± 4.6e-05 1/K | 0.00105 ± 4.5e-05 1/K | 0.00102 ± 4.3e-05 1/K | 0.000986 ± 4.2e-05 1/K | 0.000957 ± 4.1e-05 1/K | 0.00093 ± 3.9e-05 1/K | 0.000912 ± 3.9e-05 1/K | 0.000888 ± 3.8e-05 1/K | 0.000868 ± 3.7e-05 1/K
298.15 K, x1 = 0.503 | 0.00108 ± 4.6e-05 1/K | 0.00104 ± 4.4e-05 1/K | 0.00101 ± 4.3e-05 1/K | 0.000982 ± 4.2e-05 1/K | 0.000952 ± 4e-05 1/K | 0.000928 ± 3.9e-05 1/K | 0.000904 ± 3.8e-05 1/K | 0.000879 ± 3.7e-05 1/K | 0.000864 ± 3.7e-05 1/K | 0.000844 ± 3.6e-05 1/K
298.15 K, x1 = 0.594 | 0.00103 ± 4.4e-05 1/K | 0.001 ± 4.2e-05 1/K | 0.000975 ± 4.1e-05 1/K | 0.000944 ± 4e-05 1/K | 0.00092 ± 3.9e-05 1/K | 0.000897 ± 3.8e-05 1/K | 0.000873 ± 3.7e-05 1/K | 0.000856 ± 3.6e-05 1/K | 0.000836 ± 3.5e-05 1/K | 0.000819 ± 3.5e-05 1/K
298.15 K, x1 = 0.6827 | 0.000993 ± 4.2e-05 1/K | 0.000965 ± 4.1e-05 1/K | 0.000939 ± 4e-05 1/K | 0.000913 ± 3.9e-05 1/K | 0.00089 ± 3.8e-05 1/K | 0.000868 ± 3.7e-05 1/K | 0.000846 ± 3.6e-05 1/K | 0.000827 ± 3.5e-05 1/K | 0.000812 ± 3.4e-05 1/K | 0.000794 ± 3.4e-05 1/K
298.15 K, x1 = 0.8013 | 0.000938 ± 4e-05 1/K | 0.000913 ± 3.9e-05 1/K | 0.00089 ± 3.8e-05 1/K | 0.000868 ± 3.7e-05 1/K | 0.000848 ± 3.6e-05 1/K | 0.00083 ± 3.5e-05 1/K | 0.000809 ± 3.4e-05 1/K | 0.000792 ± 3.4e-05 1/K | 0.000778 ± 3.3e-05 1/K | 0.000763 ± 3.2e-05 1/K
298.15 K, x1 = 0.8934 | 0.000896 ± 3.8e-05 1/K | 0.000874 ± 3.7e-05 1/K | 0.000855 ± 3.6e-05 1/K | 0.000835 ± 3.5e-05 1/K | 0.000816 ± 3.5e-05 1/K | 0.000797 ± 3.4e-05 1/K | 0.000781 ± 3.3e-05 1/K | 0.000763 ± 3.2e-05 1/K | 0.000751 ± 3.2e-05 1/K | 0.000739 ± 3.1e-05 1/K
298.15 K, x1 = 1 | 0.00085 ± 3.6e-05 1/K | 0.000832 ± 3.5e-05 1/K | 0.000812 ± 3.4e-05 1/K | 0.000796 ± 3.4e-05 1/K | 0.00078 ± 3.3e-05 1/K | 0.000764 ± 3.2e-05 1/K | 0.000749 ± 3.2e-05 1/K | 0.000734 ± 3.1e-05 1/K | 0.000724 ± 3.1e-05 1/K | 0.000712 ± 3e-05 1/K
